Reference: US9572786B2, “Use of capsiate or dihydrocapsidate” (Catholic University Industry Academy Cooperation Foundation, priority 2007, dated 2017)

Key:
HUVEC [1] = assay: Chemotactic mobility, Transwell assay; type: cell-based, human; details: 1, 5, 10, 25 μM; 4 hours
Procedure: Transwell assay (Corning Costar, USA) was carried out in order to investigate the effect of capsiate or dihydrocapsiate on chemotactic mobility of HUVEC [Lee O H et al., 1999, Biochem. Biophys. Res. Commun. 264; 743-750].
In brief, the bottom side of a filter was coated with 10 μg of gelatin and M199 medium containing VEGF and 1% FBS was added to the lower well. HUVEC were prepared by treating with trypsin and diluting in M199 medium containing 1% FBS to a concentration of 1×10^6 cells/mL. Capsiate or dihydrocapsiate at different concentrations (1 μM, 5 μM, 10 μM, 25 μM) were pre-treated at room temperature for 30 minutes. The cells in […] of medium were added to the upper well and cultured at 37° C. for 4 hours. After fixation, followed by staining with hematoxylin and eosin, the cells remaining on the top surface of the filter without moving were removed. The cells that migrated to the bottom side of the filter were observed and counted using an optical microscope (×200).

cyclin A = assay: Cyclin expression, Western blotting: cyclin A; type: cell-based, human; details: HUVEC; 1, 5, 10, 25 μM; 10 ng/mL VEGF; 12 hours
Procedure: (§1) 3×10^5 HUVEC were placed on a 60 mm plate and cultured for 24 hours. After washing twice with M199 medium (Invitrogen, USA), the cells were cultured in M199 medium containing 1% FBS for 6 hours. After adding capsiate or dihydrocapsiate at different concentrations (1 μM, 5 μM, 10 μM, 25 μM), followed by pre-culturing for 30 minutes, 10 ng/mL VEGF was added and the cells were cultured for 12 hours. The cells were collected and proteins obtained therefrom were quantitated and the expression level of the proteins was identified by Western blotting using antibodies of cyclin D1, cyclin E and cyclin A.

C57/BL6 mouse = assay: Mouse Matrigel plug assay; type: in vivo; details: 60 μg in 0.6 mL Matrigel with 100 ng VEGF, subcutaneous injection, 6 days
Procedure: Mouse Matrigel plug was carried out in order to investigate the effect of capsiate or dihydrocapsiate on VEGF-induced angiogenesis in vivo [Min K J et al., 2007, Blood, 15: 1495-1502].
0.6 mL of Matrigel containing 60 μg of capsiate or dihydrocapsiate, 100 ng of VEGF and 10 units of heparin or Matrigel containing 100 ng of VEGF only was administered to C57/BL6 mouse (Orient, Korea) through subcutaneous injection. 6 days later, the produced Matrigel plug was taken out.

cyclin D1 = assay: Cyclin expression, Western blotting: cyclin D1; type: cell-based, human; details: HUVEC; 1, 5, 10, 25 μM; 10 ng/mL VEGF; 12 hours
Procedure: as §1

HUVEC [2] = assay: VEGF-induced proliferation of endothelial cells, 3H-thymidine incorporation assay; type: cell-based, human; details: 25 μM; 10 ng/mL VEGF
Procedure: The inhibition effect of capsiate or dihydrocapsiate on the proliferation of EC induced by VEGF was investigated by ^3H-thymidine incorporation assay according to a method published in the literature [Lee O H et al., 1999, Biochem. Biophys. Res. Commun., 264: 743-750].
In brief, HUVEC were placed on a gelatin-coated 24-well plate at a concentration of 2×10^4 cells/well. After culturing for 24 hours, followed by washing twice with M199 medium (Invitrogen, USA), the cells were cultured for 6 hours in M199 medium containing 1% FBS. After addition of 25 μM capsiate or dihydrocapsiate, followed by pre-culturing for 30 minutes, 10 ng/mL VEGF was added and the cells were cultured for 30 hours. Then, 0.5 μCi/mL ^3H-thymidine was added and the cells were cultured for 6 hours.
DNA was precipitated from the cultured cells in 10% trichloroacetic acid at 4° C. for 30 minutes and washed twice with water. The DNA was dissolved in 0.2 N NaOH/0.1% SDS and measured using a liquid scintillation counter.

cyclin E = assay: Cyclin expression, Western blotting: cyclin E; type: cell-based, human; details: HUVEC; 1, 5, 10, 25 μM; 10 ng/mL VEGF; 12 hours
Procedure: as §1

HUVEC [3] = assay: Tube formation on Matrigel; type: cell-based, human; details: 1, 5, 10, 25 μM, VEGF 10 ng/mL, 20 hours
Procedure: The effect of capsiate or dihydrocapsiate on tube formation was investigated according to a method published in the literature [Lee O H et al., 1999, Biochem. Biophys. Res. Commun. 264; 743-750].
In brief, 250 μL of growth factor-reduced Matrigel (10 mg protein/mL) was added to a 16 mm tissue culture well and subjected to polymerization at 37° C. for 30 minutes. HUVEC cultured for in M199 medium containing 1% FBS for 6 hours were treated with trypsin, collected, and resuspended in M199 medium containing 1% FBS. Capsiate or dihydrocapsiate at different concentrations (1 μM, 5 μM, 10 μM, 25 μM) were pre-treated at room temperature for 30 minutes. The cells were added to the Matrigel at a concentration of 1.8×10^5 cells/well and VEGF (10 ng/mL) was added. After culturing for 20 hours, photograph was taken (×200) and the area covered by the tube network was measured according to an optical imaging technique [scanned with Adobe Photoshop and measured with Image-Pro Plus (Media Cybermetics).

HaCaT cells = assay: UV-induced intracellular ROS production (DCFH-DA fluorescence microscopy); type: cell-based, human; details: 50 μM, UV 100 J/m^2, vs UV only control group
Procedure: 5×10^5 HaCaT cells (acquired from Professor N. Fusenig of the German Cancer Research Center), which are a human keratinocyte cell line, were placed on a 60 mm Petri dish (1×10^6 cells for a 100 mm Petri dish) and cultured for 24 hours in Dulbecco's modified Eagle's medium (DMEM) containing 10% fetal bovine serum (FBS).
After treating with 50 μM capsiate for 30 minutes, the cells were washed 3 times with phosphate buffered saline (PBS). In order to induce the production of ROS, UV was irradiated at an intensity of 100 J/m^2, using a UV lamp (FSX 24 T12/UVB/HO, Pansol™ USA). Immediately after the UV irradiation, the cells were washed again with PBS and further cultured for 2 hours in DMEM containing 1% FBS, which was treated with capsiate at the same concentration as in the pre-treatment. After treating with 25 μM 2,7-dichlorofliuorescin diacetate (DCFH-DA) in Hank's balanced salt solution (HBSS, BioWhittaker Cambrex, USA) for 30 minutes, the cells were washed 3 times with PBS.
The treated cells were observed under a fluorescence microscope (Carl Zeiss, USA) in order to measure the ROS produced by the UV irradiation. […]
Inhibition effect on the production of intracellular ROS induced by UV was measured in the same manner as Example 1-1, except for using dihydrocapsiate instead of capsiate.

| SMILES | VEGF-increased chemotactic mobility of HUVEC (HUVEC [1]) | VEGF-increased cyclin A expression in protein level (cyclin A) | VEGF-induced angiogenesis in Matrigel plug (colour) (C57/BL6 mouse) | VEGF-increased cyclin D1 expression in protein level (cyclin D1) | VEGF-increased DNA synthesis in HUVEC (3H-thymidine incorporation) (HUVEC [2]) | VEGF-increased cyclin E expression in protein level (cyclin E) | VEGF-induced formation of tube-like structures (HUVEC [3]) | production of intracellular ROS induced by UV (HaCaT cells) |
| --- | --- | --- | --- | --- | --- | --- | --- | --- |
| COc1cc(COC(=O)CCCC/C=C/C(C)C)ccc1O [capsiate] | decreased in a concentration-dependent manner | concentration-dependent decrease | angiogenesis hardly occurred | concentration-dependent decrease | inhibited the DNA synthesis | concentration-dependent decrease | reduced | decreased remarkably |
| COc1cc(COC(=O)CCCCCCC(C)C)ccc1O [dihydrocapsiate] | decreased in a concentration-dependent manner | concentration-dependent decrease | angiogenesis hardly occurred | concentration-dependent decrease | inhibited the DNA synthesis | concentration-dependent decrease | reduced | decreased remarkably |
